Where “and” joins values, the source holds several entries; their conditions need not be identical. Equal entries are not always repeated.
System: 772245-204-R-J1-PDC complex spheroid growth
Test: Anticancer human tumor 772245-204-R-J1-PDC patient-derived rhabdomyosarcoma cell line growth inhibition [Asc]
Conditions: for viability, T/C: stronger effect = lower value
Summary of the method: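 Complex solid-tumor spheroids incorporating human endothelial and mesenchymal stem cells received single agents or combinations over half-log dilution ranges anchored to clinical Cmax.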

[1] = curve of first compound, second compound 0.1 µM
[2] = curve of first compound, second compound 0.316 µM
[3] = curve of first compound, second compound 1 µM
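Also: compound exposure lasted seven days.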
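For viability, T/C in this document: 100% = DMSO vehicle control viability.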

Cc1nc(N2CCC3(CC2)COC(C)C3N)c(CO)nc1Sc1ccnc(N)c1Cl (stereo not drawn) + Cc1c(S(C)(=O)=O)c(-c2cc(F)cc(N3CCN(c4ccc(NS(=O)(=O)c5ccc(NC(CCN6CCC(C(=O)OCCCP(=O)(O)O)CC6)CSc6ccccc6)c(S(=O)(=O)C(F)(F)F)c5)cc4)CC3)c2)c(-c2ccc(Cl)cc2)n1C(C)C
IC50 [1]: 2230 nM
IC50 [2]: 644 nM
IC50 [3]: 369 nM
IC50 (curve of first compound, second compound 3.16 µM): 86.2 nM
IC50 (curve of first compound, second compound 10 µM): 444 nM
viability, T/C (second compound 0.1 µM, first compound 0.00949 µM): 90.3%
viability, T/C (second compound 0.1 µM, first compound 0.03 µM): 90.2%
viability, T/C (second compound 0.1 µM, first compound 0.0949 µM): 85%
viability, T/C (second compound 0.1 µM, first compound 0.3 µM): 71%
viability, T/C (second compound 0.1 µM, first compound 0.949 µM): 63.7%
viability, T/C (second compound 0.1 µM, first compound 3 µM): 45.4%
viability, T/C (second compound 0.316 µM, first compound 0.00949 µM): 72.6%
viability, T/C (second compound 0.316 µM, first compound 0.03 µM): 76.3%
viability, T/C (second compound 0.316 µM, first compound 0.0949 µM): 70.9%
viability, T/C (second compound 0.316 µM, first compound 0.3 µM): 57%
viability, T/C (second compound 0.316 µM, first compound 0.949 µM): 46.8%
viability, T/C (second compound 0.316 µM, first compound 3 µM): 31.2%
viability, T/C (second compound 1 µM, first compound 0.00949 µM): 47.4%
viability, T/C (second compound 1 µM, first compound 0.03 µM): 63.7%
viability, T/C (second compound 1 µM, first compound 0.0949 µM): 68.6%
viability, T/C (second compound 1 µM, first compound 0.3 µM): 47.9%
viability, T/C (second compound 1 µM, first compound 0.949 µM): 38.3%
viability, T/C (second compound 1 µM, first compound 3 µM): 20.3%
viability, T/C (second compound 3.16 µM, first compound 0.00949 µM): 60.9%
viability, T/C (second compound 3.16 µM, first compound 0.03 µM): 49.7%
viability, T/C (second compound 3.16 µM, first compound 0.0949 µM): 54.9%
viability, T/C (second compound 3.16 µM, first compound 0.3 µM): 37.9%
viability, T/C (second compound 3.16 µM, first compound 0.949 µM): 32.4%
viability, T/C (second compound 3.16 µM, first compound 3 µM): 14.5%
viability, T/C (second compound 10 µM, first compound 0.00949 µM): 52.1%
viability, T/C (second compound 10 µM, first compound 0.03 µM): 61.2%
viability, T/C (second compound 10 µM, first compound 0.0949 µM): 60.9%
viability, T/C (second compound 10 µM, first compound 0.3 µM): 55.4%
viability, T/C (second compound 10 µM, first compound 0.949 µM): 38.7%
viability, T/C (second compound 10 µM, first compound 3 µM): 16.4%

O=C(c1cc(Cc2n[nH]c(=O)c3ccccc23)ccc1F)N1CCN(C(=O)C2CC2)CC1 + CNC(C)C(=O)NC1CN(S(=O)(=O)c2cccc(S(=O)(=O)N3CCC4CCC(C(=O)NC(c5ccccc5)c5ccccc5)N4C(=O)C(NC(=O)C(C)NC)C3)c2)CCC2CCC(C(=O)NC(c3ccccc3)c3ccccc3)N2C1=O
IC50 (curve of first compound, second compound 0.01 µM): > 10000 nM
IC50 (curve of first compound, second compound 0.0316 µM): > 10000 nM
IC50 [1]: > 10000 nM
IC50 [2]: > 10000 nM
IC50 [3]: > 10000 nM
viability, T/C (second compound 0.01 µM, first compound 0.0316 µM): 93.6%
viability, T/C (second compound 0.01 µM, first compound 0.1 µM): 99.7%
viability, T/C (second compound 0.01 µM, first compound 0.316 µM): 99%
viability, T/C (second compound 0.01 µM, first compound 1 µM): 98.5%
viability, T/C (second compound 0.01 µM, first compound 3.16 µM): 80.5%
viability, T/C (second compound 0.01 µM, first compound 10 µM): 81.1%
viability, T/C (second compound 0.0316 µM, first compound 0.0316 µM): 106%
viability, T/C (second compound 0.0316 µM, first compound 0.1 µM): 104%
viability, T/C (second compound 0.0316 µM, first compound 0.316 µM): 88.6%
viability, T/C (second compound 0.0316 µM, first compound 1 µM): 113%
viability, T/C (second compound 0.0316 µM, first compound 3.16 µM): 96.1%
viability, T/C (second compound 0.0316 µM, first compound 10 µM): 97.7%
viability, T/C (second compound 0.1 µM, first compound 0.0316 µM): 103%
viability, T/C (second compound 0.1 µM, first compound 0.1 µM): 99.2%
viability, T/C (second compound 0.1 µM, first compound 0.316 µM): 98%
viability, T/C (second compound 0.1 µM, first compound 1 µM): 86.7%
viability, T/C (second compound 0.1 µM, first compound 3.16 µM): 78.3%
viability, T/C (second compound 0.1 µM, first compound 10 µM): 76.5%
viability, T/C (second compound 0.316 µM, first compound 0.0316 µM): 102%
viability, T/C (second compound 0.316 µM, first compound 0.1 µM): 106%
viability, T/C (second compound 0.316 µM, first compound 0.316 µM): 106%
viability, T/C (second compound 0.316 µM, first compound 1 µM): 94.5%
viability, T/C (second compound 0.316 µM, first compound 3.16 µM): 81.2%
viability, T/C (second compound 0.316 µM, first compound 10 µM): 78%
viability, T/C (second compound 1 µM, first compound 0.0316 µM): 106%
viability, T/C (second compound 1 µM, first compound 0.1 µM): 94.1%
viability, T/C (second compound 1 µM, first compound 0.316 µM): 103%
viability, T/C (second compound 1 µM, first compound 1 µM): 97.2%
viability, T/C (second compound 1 µM, first compound 3.16 µM): 82.6%
viability, T/C (second compound 1 µM, first compound 10 µM): 94.8%

CCN1C(C(=O)NC23CCC(C(=O)O)(CC2)CC3)C(c2cccc(Cl)c2F)C2(C(=O)Nc3cc(Cl)ccc32)C12CCCCC2 (stereo not drawn)
viability, T/C (compound 0.00949 µM): 107% and 93.5%
IC50 (compound alone, run of 10/11/2022): > 3000 nM
IC50 (curve of compound): > 3000 nM
